IC50 data for 46 molecules are collected here from patent US12336981B2, “Compounds and compositions for the inhibition of NAMPT” (Valo Health, Inc., priority 2010, dated 2025).

SMILES strings stand for the structures.

Test [1] concerns the target T1, NAMPT (Homo sapiens, UniProt P43490).
T1 construct: His tag; host or cells: E. coli
Kind of test: Biochemical inhibition assay: NAMPT enzymatic reaction, NMN quantified by mass spectrometry. The settings on record: NAMPT enzymatic reaction; read-out: Biochem IC50. The essentials:
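Inhibition of E. coli-expressed His-tagged human NAMPT, measured as NMN formation by mass spectrometry after a 30 min room-temperature reaction containing 1 μM NAM, 100 μM PRPP and 2.5 mM ATP.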

For test [2], the system named is A2780 cells. Kind of test: In-vitro cell proliferation assay (SRB), A2780 cells. It is filed as cell-based. The settings on record: Homo sapiens, A2780, 72 h, A2780 cells, 72 hours, SRB; read-out: A2780 IC50. The essentials: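 Viable cells measured by SRB staining after 6% TCA fixation, absorbance 570 nm. Media-only background subtracted; % inhibition derived at two compound concentrations.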

T1 sequence (P43490 whole entry): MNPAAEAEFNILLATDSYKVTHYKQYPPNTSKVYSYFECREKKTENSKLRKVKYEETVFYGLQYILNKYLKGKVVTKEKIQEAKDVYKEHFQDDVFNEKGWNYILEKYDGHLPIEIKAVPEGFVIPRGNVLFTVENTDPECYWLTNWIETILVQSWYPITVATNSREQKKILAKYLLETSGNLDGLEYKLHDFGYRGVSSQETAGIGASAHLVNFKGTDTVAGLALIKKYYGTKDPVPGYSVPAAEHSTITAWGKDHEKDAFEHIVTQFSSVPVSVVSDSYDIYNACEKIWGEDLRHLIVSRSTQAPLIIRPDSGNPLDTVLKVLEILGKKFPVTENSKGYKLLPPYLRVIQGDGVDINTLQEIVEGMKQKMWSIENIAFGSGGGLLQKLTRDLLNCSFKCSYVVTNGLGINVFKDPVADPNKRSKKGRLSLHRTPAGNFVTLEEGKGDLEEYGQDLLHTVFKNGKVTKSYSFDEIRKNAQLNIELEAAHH

The term IC50 denotes the midpoint of a concentration-inhibition curve. As to `O=C(NCc1ccc(S(=O)(=O)c2cccc(N3CCCCC3)c2)cc1)c1cc2cc(O)ccc2[nH]1`, the IC50 in test [1] fell in the range of 100 to 1000 nM; in test [2] it was 1000 to 10000 nM.
Taken in the same sequence, the figures for `O=C(NCc1ccc(S(=O)(=O)c2cccc(N3CCCC3)c2)cc1)c1cc2cc(O)ccc2[nH]1` were 144 nM and 100 to 1000 nM.
Regarding `CC(=O)c1ccccc1S(=O)(=O)c1ccc(CNC(=O)c2cnc3nccn3c2)cc1`, the IC50 stood at 2.5 nM in test [1] and 8.2 nM in test [2].
The corresponding values for `CCCCOc1cc(F)ccc1S(=O)(=O)c1ccc(CNC(=O)c2cc3cnccc3[nH]2)cc1` are 31.1 nM and 5.5 nM.
Consider `CCCCOc1cc(F)ccc1S(=O)(=O)c1ccc(CNC(=O)c2cc3ccncc3s2)cc1`, for which the concentration for half-maximal inhibition (IC50) is 7 nM in test [1] and 6.3 nM in test [2].
`CCCCOc1cc(F)ccc1S(=O)(=O)c1ccc(CNC(=O)c2ccc3nccn3c2)cc1`: the IC50 in test [1] was 51.2 nM; in test [2], 6.2 nM.
With `CCCCOc1cc(F)ccc1S(=O)(=O)c1ccc(CNC(=O)c2cnc3nccn3c2)cc1`, the IC50 is 7.3 nM in test [1] and 73.8 nM in test [2].
Taken in the same sequence, the figures for `CCCCOc1cc(F)ccc1S(=O)(=O)c1ccc(CNC(=O)c2cc3ccncc3o2)cc1` were 33.5 nM and 66.5 nM.
Turning to `CCCCOc1ccc(Cl)cc1S(=O)(=O)c1ccc(CNC(=O)c2cc3ccncc3o2)cc1`, the values for the IC50 in test [1] and in test [2] were 24.3 nM and 66.3 nM, respectively.
Taken in the same sequence, the figures for `CCCCOc1ccc(Cl)cc1S(=O)(=O)c1ccc(CNC(=O)c2cc3ccncc3s2)cc1` were 7.3 nM and 10 nM.
In the case of `CCCCOc1ccc(Cl)cc1S(=O)(=O)c1ccc(CNC(=O)c2ccc3nccn3c2)cc1`, the values for the IC50 in test [1] and in test [2] were 11 nM and 8 nM, respectively.
Regarding `CCCCOc1ccc(Cl)cc1S(=O)(=O)c1ccc(CNC(=O)c2cc3cnccc3[nH]2)cc1`, the IC50 is 15.6 nM in test [1] and 8.3 nM in test [2].
Taken in the same sequence, the figures for `CCCCOc1ccc(Cl)cc1S(=O)(=O)c1ccc(CNC(=O)c2cnc3nccn3c2)cc1` were 3.7 nM and 62.8 nM.
For `CCCCOc1cccc(F)c1S(=O)(=O)c1ccc(CNC(=O)c2cc3cnccc3[nH]2)cc1`, the IC50 in test [1] was determined as 8.8 nM; in test [2] it was 5.6 nM.
Taken in the same sequence, the figures for `CCCCOc1cccc(F)c1S(=O)(=O)c1ccc(CNC(=O)c2cc3ccncc3o2)cc1` were 25.6 nM and 69.8 nM.
The corresponding values for `O=C(NCc1ccc(S(=O)(=O)c2cccc(F)c2Cl)cc1)c1cc2ccncc2o1` are 17 nM and 61.1 nM.
In the case of `O=C(NCc1ccc(S(=O)(=O)c2cccc(F)c2Cl)cc1)c1cnc2[nH]ncc2c1`, the figures for the IC50 in test [1] and in test [2] were 73.6 nM and 100 to 1000 nM, respectively.
Consider `O=C(NCc1ccc(S(=O)(=O)c2ccc(F)cc2Cl)cc1)c1cc2ccncc2o1`, for which the IC50 in test [1] turned out to be 17.8 nM; in test [2], 63.4 nM.
Taken in the same sequence, the figures for `Cc1ccc(Cl)c(S(=O)(=O)c2ccc(CNC(=O)c3cnc4nccn4c3)cc2)c1Cl` were 7.3 nM and 56 nM.
On to `Cc1ccc(Cl)c(S(=O)(=O)c2ccc(CNC(=O)c3cc4ccncc4o3)cc2)c1Cl`, for which the figures for the IC50 in test [1] and in test [2] were 10.8 nM and 16.2 nM, respectively.
The corresponding values for `O=C(NCc1ccc(S(=O)(=O)c2c(Cl)cccc2Cl)cc1)c1cnc2nccn2c1` are 13.4 nM and 100 to 1000 nM.
Turning to `O=C(NCc1ccc(S(=O)(=O)c2c(Cl)cccc2Cl)cc1)c1cc2ccncc2s1`, the values for the IC50 in test [1] and in test [2] were 7.6 nM and 18.2 nM, respectively.
In the case of `O=C(NCc1ccc(S(=O)(=O)c2c(Cl)cccc2Cl)cc1)c1ccc2nccn2c1`, the IC50 was determined as 1.2 nM in test [1] and 18.8 nM in test [2].
The corresponding values for `O=C(NCc1ccc(S(=O)(=O)c2c(Cl)cccc2Cl)cc1)c1cc2cnccc2[nH]1` are 44.7 nM and 13.5 nM.
The corresponding values for `O=C(NCc1ccc(S(=O)(=O)c2c(Cl)cccc2Cl)cc1)c1cnc2[nH]ncc2c1` are 180 nM and 1000 to 10000 nM.
For `O=C(NCc1ccc(S(=O)(=O)c2c(Cl)cccc2Cl)cc1)c1cc2ccncc2o1`, the figures for the IC50 in test [1] and in test [2] were 12.4 nM and 60.1 nM, respectively.
The corresponding values for `COc1cc(C)cc(OC)c1S(=O)(=O)c1ccc(CNC(=O)c2cnc3[nH]ncc3c2)cc1` are 100 to 1000 nM and 100 to 1000 nM.
For `Cc1cccc(C)c1S(=O)(=O)c1ccc(CNC(=O)c2cc3ccncc3o2)cc1`, the IC50 in test [1] was 32.3 nM; in test [2], 100 to 1000 nM.
The corresponding values for `COc1ccc(C(C)=O)cc1S(=O)(=O)c1ccc(CNC(=O)c2cnc3nccn3c2)cc1` are 17.2 nM and 54.8 nM.
The corresponding values for `CCOc1ccc(Cl)cc1S(=O)(=O)c1ccc(CNC(=O)c2cnc3nccn3c2)cc1` are 1.9 nM and 3.3 nM.
Taken in the same sequence, the figures for `CCOc1ccc(Cl)cc1S(=O)(=O)c1ccc(CNC(=O)c2ccc3nccn3c2)cc1` were 2.2 nM and 0.5 nM.
`CCOc1ccc(Cl)cc1S(=O)(=O)c1ccc(CNC(=O)c2cc3ccncc3s2)cc1`: the IC50 in test [1] is 2.7 nM; in test [2] it was 0.5 nM.
Consider `COc1ccc(Cl)cc1S(=O)(=O)c1ccc(CNC(=O)c2cnc3nccn3c2)cc1`, for which the half-inhibitory concentration (IC50) is 5.5 nM in test [1] and 6.1 nM in test [2].
Taken in the same sequence, the figures for `COc1ccc(Cl)cc1S(=O)(=O)c1ccc(CNC(=O)c2cnc3[nH]ncc3c2)cc1` were 49.2 nM and 8.1 nM.
The corresponding values for `Cc1ccc(Cl)cc1S(=O)(=O)c1ccc(CNC(=O)c2cnc3nccn3c2)cc1` are 3.1 nM and 4.3 nM.
As for `Cc1ccc(Cl)cc1S(=O)(=O)c1ccc(CNC(=O)c2cc3ccncc3s2)cc1`, the IC50 in test [1] is 4.8 nM; in test [2], 6.6 nM.
For `Cc1ccc(Cl)cc1S(=O)(=O)c1ccc(CNC(=O)c2cc3ccncc3o2)cc1`, the 50% inhibitory concentration (IC50) came out at 5.8 nM in test [1] and 7.8 nM in test [2].
Taken in the same sequence, the figures for `CCCOc1ccc(Cl)cc1S(=O)(=O)c1ccc(CNC(=O)c2cc3cnccc3[nH]2)cc1` were 7.5 nM and 1.2 nM.
The corresponding values for `CCCOc1ccc(Cl)cc1S(=O)(=O)c1ccc(CNC(=O)c2cc3ccncc3o2)cc1` are 8 nM and 9.3 nM.
The corresponding values for `CCCOc1ccc(Cl)cc1S(=O)(=O)c1ccc(CNC(=O)c2cc3ccncc3s2)cc1` are 5.7 nM and 1.2 nM.
As for `COc1ccc(C#N)cc1S(=O)(=O)c1ccc(CNC(=O)c2ccc3nccn3c2)cc1`, the IC50 is 14.6 nM in test [1] and 11.9 nM in test [2].
Consider `COc1ccc(F)cc1S(=O)(=O)c1ccc(CNC(=O)c2cc3ccncc3s2)cc1`, for which the IC50 in test [1] came to 2 nM; in test [2], 0.8 nM.
In the case of `COc1ccc(F)cc1S(=O)(=O)c1ccc(CNC(=O)c2cc3ccncc3o2)cc1`, the figures for the 50% inhibitory concentration (IC50) in test [1] and in test [2] were 2.2 nM and 12.4 nM, respectively.
For `COc1ccc(F)cc1S(=O)(=O)c1ccc(CNC(=O)c2cnc3[nH]ncc3c2)cc1`, the IC50 in test [1] was 39 nM; in test [2], 15.1 nM.
Taken in the same sequence, the figures for `COc1ccc(F)cc1S(=O)(=O)c1ccc(CNC(=O)c2cnc3nccn3c2)cc1` were 7.3 nM and 26.1 nM.
Regarding `Cc1ccc(F)cc1S(=O)(=O)c1ccc(CNC(=O)c2cc3ccncc3o2)cc1`, the IC50 in test [1] came to 14.3 nM; in test [2] it was 24.9 nM.
